Results from the supplement of paper PMC10307832.

Tests used:
Test in all cases: relative viability (nuclei count vs DMSO), 5 days (fraction); higher = more cells survive
[1] = compound: O=c1[nH]cc(F)c(=O)[nH]1 [5-Fluorouracil] + O=C(CCCCCCC(=O)Nc1ccccc1)NO [Vorinostat] (partner 1 µM)
Summary of the method: (§1)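 Relative viability was taken as the ratio of nuclei in treated wells to nuclei in vehicle wells. Lung cancer cell lines in 1536-well plates received compounds by pin tool one day after seeding, either one drug alone or a fixed anchor-drug dose plus five library-drug doses (not always all listed) in √10 steps. Nuclei were counted on 4× images after 5 days of treatment, and values are medians of duplicate plates.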

[2] = compound: CN[C@@H]1C[C@H]2O[C@@](C)([C@@H]1OC)n1c3ccccc3c3c4c(c5c6ccccc6n2c5c31)C(=O)NC4 [Staurosporine] + CC(=O)c1c(C)c2cnc(Nc3ccc(N4CCNCC4)cn3)nc2n(C2CCCC2)c1=O [Palbociclib] (partner 0.5 µM)
Summary of the method: as §1

Sulindac + Crizotinib = compound: CC1=C(CC(=O)O)c2cc(F)ccc2/C1=C\c1ccc([S+](C)[O-])cc1 [Sulindac] + C[C@@H](Oc1cc(-c2cnn(C3CCNCC3)c2)cnc1N)c1c(Cl)ccc(F)c1Cl [Crizotinib] (partner 1 µM)
Summary of the method: as §1

Cell Line	relative viability ([1]; first compound 0.02 µM)	relative viability ([1]; first compound 0.2 µM)	relative viability ([1]; first compound 0.6325 µM)	relative viability ([1]; first compound 2 µM)	relative viability ([2]; first compound 0.005 µM)	relative viability ([2]; first compound 0.01581 µM)	relative viability ([2]; first compound 0.05 µM)	relative viability ([2]; first compound 0.1581 µM)	relative viability ([2]; first compound 0.5 µM)	relative viability (Sulindac + Crizotinib; first compound 0.08 µM)	relative viability (Sulindac + Crizotinib; first compound 0.253 µM)	relative viability (Sulindac + Crizotinib; first compound 0.8 µM)	relative viability (Sulindac + Crizotinib; first compound 2.53 µM)	relative viability (Sulindac + Crizotinib; first compound 8 µM)
PC-14	0.82	0.635	0.623	0.355	0.174	0.077	0.0379	0.0411	0.0434	0.942	0.891	0.726	0.911	1.02
HARA	0.517	0.39	0.281	0.16	0.268	0.236	0.206	0.177	0.118	1.1	1.29	–	1.21	1.07
NCI-H23	0.512	0.582	0.307	0.21	0.255	0.253	0.162	0.147	0.131	0.39	0.643	0.359	0.689	0.504
LCLC-97TM1	0.575	1.07	0.857	0.272	0.238	0.127	0.133	0.141	0.17	0.435	0.373	0.319	–	0.418
LC-2-ad	0.697	0.589	0.42	0.256	0.537	0.328	0.279	0.168	0.109	0.423	0.516	0.404	0.46	0.466
NCI-H1666	0.981	0.649	0.577	0.563	0.63	0.555	0.679	0.482	0.462	–	1.03	0.942	0.949	1.17
EKVX	0.69	0.328	–	–	0.266	0.143	0.152	0.168	0.0893	1.17	0.871	0.692	0.907	0.947
SW 1573	0.873	0.843	0.778	0.466	0.172	0.113	0.131	0.0619	0.081	0.825	0.742	0.766	0.869	0.867
HCC-827	0.556	0.697	0.348	0.272	0.59	0.401	0.299	0.226	0.225	0.927	0.98	0.942	0.914	0.956
NCI-H727	0.953	1.14	1	0.902	0.649	0.557	0.5	0.447	0.443	0.964	0.779	0.782	0.856	1.03
CAL-12T	0.759	0.591	0.563	0.447	0.196	0.138	0.107	0.142	0.122	0.689	0.661	0.563	0.629	0.797
NCI-H1648	0.482	0.389	0.495	0.263	0.23	0.227	0.249	0.279	0.258	–	–	–	–	–
NCI-H522	0.884	1.02	0.982	0.81	1.19	0.877	–	0.638	0.502	–	–	–	–	–
IA-LM	0.906	0.659	0.274	0.25	–	–	–	–	–	0.565	0.804	0.594	0.677	1.12
EPLC-272H	0.621	0.401	0.279	0.241	0.3	0.275	0.193	0.157	0.0846	0.932	–	0.948	0.551	0.977
A-427	0.812	0.921	0.783	0.419	0.509	0.425	0.346	0.246	0.193	0.892	0.888	0.881	0.894	0.896
NCI-H661	0.835	0.818	0.786	0.809	0.418	0.337	0.329	0.26	0.192	0.973	1.03	1.03	1.17	0.973
NCI-H1993	0.846	0.552	0.494	0.547	0.776	0.685	0.526	0.395	0.339	0.848	0.862	0.747	0.86	0.83
NCI-H358	0.837	0.664	0.529	0.192	0.107	0.081	0.102	0.0861	0.0814	0.475	0.52	0.596	0.497	0.746
SK-LU-1	0.705	0.885	0.744	0.681	0.326	0.186	0.166	0.164	0.161	0.844	1.22	0.781	0.975	1.26
NCI-H1915	0.404	0.493	0.587	0.407	0.379	0.323	0.237	0.175	0.109	1.25	1.02	0.676	0.903	0.947
NCI-H650	0.414	0.309	0.264	0.251	0.262	0.208	0.224	0.234	0.199	0.788	0.73	0.793	0.637	0.914
NCI-H441	0.862	0.581	0.327	–	0.161	0.12	0.118	0.114	0.112	0.709	0.719	0.626	0.651	0.946
COR-L 105	0.718	0.881	0.771	0.626	0.365	0.334	0.313	0.282	0.246	0.957	0.901	0.759	0.776	0.911
NCI-H2009	0.75	0.825	0.753	0.396	0.147	0.159	0.13	0.0987	0.0664	1.15	1.05	1.05	0.985	1.24
NCI-H1437	0.441	0.301	0.252	0.253	0.27	0.182	0.168	0.116	–	1.15	0.992	0.58	0.978	1.04
PC-3 [JPC-3]	0.752	0.825	0.871	0.522	0.563	0.513	0.398	0.398	0.343	1.09	1.06	0.959	1.02	1.02

Cell Line	relative viability ([1]; first compound 0.02 µM)	relative viability ([1]; first compound 0.2 µM)	relative viability ([1]; first compound 0.6325 µM)	relative viability ([1]; first compound 2 µM)	relative viability ([2]; first compound 0.005 µM)	relative viability ([2]; first compound 0.01581 µM)	relative viability ([2]; first compound 0.05 µM)	relative viability ([2]; first compound 0.1581 µM)	relative viability ([2]; first compound 0.5 µM)	relative viability (Sulindac + Crizotinib; first compound 0.08 µM)	relative viability (Sulindac + Crizotinib; first compound 0.253 µM)	relative viability (Sulindac + Crizotinib; first compound 0.8 µM)	relative viability (Sulindac + Crizotinib; first compound 2.53 µM)	relative viability (Sulindac + Crizotinib; first compound 8 µM)
NCI-H1703	–	–	–	–	–	–	–	–	–	0.561	0.649	0.824	0.678	0.805
NCI-H1944	0.5	0.372	0.201	0.164	0.319	0.242	0.223	0.203	0.204	0.972	1.29	0.826	0.952	1.24
NCI-H2085	0.754	0.96	0.728	0.651	0.442	0.359	0.355	0.301	0.303	0.735	0.944	0.779	0.772	0.953
EBC-1	–	–	–	–	–	–	–	–	–	0.188	0.196	–	0.178	0.201
NCI-H1792	–	–	–	–	0.614	0.577	0.323	0.274	0.26	1	1	–	0.944	1.16
NCI-H2347	0.64	0.41	0.41	0.431	0.433	0.398	0.331	0.375	0.324	0.77	0.688	0.684	0.812	0.819
ABC-1	0.982	1.24	0.963	0.834	–	0.224	0.226	0.258	0.193	1.44	1.03	0.809	1.19	1.6
201T	1.04	0.54	0.287	0.228	0.362	–	0.329	0.274	0.285	0.954	1.03	1.08	1.01	1.13
NCI-H1755	0.777	0.493	0.307	0.306	0.395	0.339	0.263	0.253	0.247	1	0.886	0.743	0.981	0.935
NCI-H647	0.432	0.593	0.48	0.187	0.239	–	0.0896	0.0475	0.0477	1.4	1.21	0.879	1.26	1.35
NCI-H1650	0.552	0.386	0.329	0.198	0.238	0.138	0.147	0.118	0.0769	1.17	0.878	0.912	0.979	1.02
NCI-H1355	0.625	0.49	0.264	0.243	0.411	0.3	0.214	0.188	0.161	1.27	1.15	0.954	1.07	1.11
NCI-H1975	0.748	0.457	0.302	0.215	0.16	0.124	0.159	0.0883	0.0924	1.06	1.07	–	1.01	1.14
BEN	0.566	0.641	0.579	0.633	0.553	0.478	0.397	0.446	0.295	0.994	0.903	0.648	0.984	1.13
NCI-H322M	0.932	0.917	0.787	0.757	0.476	0.386	0.388	0.433	0.467	1.02	1.05	0.687	1.03	1.05
SK-MES-1	1.2	0.404	0.306	0.302	0.235	0.232	0.193	0.163	0.147	1.14	1.09	0.822	1.09	1.14
HOP-62	0.629	0.699	0.626	0.509	0.334	0.194	0.116	0.106	0.0933	1.06	1.25	1.06	0.843	0.987
HCC-366	0.371	0.365	0.156	0.0639	0.297	–	0.113	0.0357	0.0204	0.378	0.599	0.446	0.497	0.729
NCI-H1563	–	–	–	–	–	–	–	–	–	0.84	0.92	0.806	0.785	0.888
SW 900	0.628	0.575	0.562	0.4	0.376	0.359	0.278	0.201	0.18	–	–	–	–	–
NCI-H1299	–	–	–	–	–	–	–	–	–	1.06	0.975	0.866	0.971	1.01
A549	–	–	–	–	–	–	–	–	–	1.13	0.783	0.651	0.892	0.924
NCI-H1793	0.801	0.814	0.723	0.502	0.446	–	0.314	0.191	0.166	–	–	–	–	–
NCI-H1395	0.728	0.755	0.645	0.756	0.53	0.438	0.406	0.393	0.306	–	–	–	–	–
NCI-H2342	0.903	0.86	0.741	0.616	0.507	0.51	0.488	0.433	0.344	–	–	–	–	–
Calu-6	–	–	–	–	–	–	–	–	–	0.951	0.883	0.637	0.853	0.969
NCI-H596	0.668	0.553	0.397	0.384	–	–	–	–	–	0.896	1.05	0.913	0.991	1.04
